Source: ChEMBL document CHEMBL5356946, “Recent progress of small-molecule-based theranostic agents in Alzheimer's disease” (RSC Med Chem, 2023)

Target: Amyloid-beta precursor protein (Homo sapiens, UniProt P05067)
Assay: Binding affinity to Amyloid-beta (unknown origin) (1 to 42 residues) assessed as dissociation constant incubated for 30 mins by fluorescence based analysis

Sequence of Amyloid-beta precursor protein (P05067 whole entry, the tested form may be a part): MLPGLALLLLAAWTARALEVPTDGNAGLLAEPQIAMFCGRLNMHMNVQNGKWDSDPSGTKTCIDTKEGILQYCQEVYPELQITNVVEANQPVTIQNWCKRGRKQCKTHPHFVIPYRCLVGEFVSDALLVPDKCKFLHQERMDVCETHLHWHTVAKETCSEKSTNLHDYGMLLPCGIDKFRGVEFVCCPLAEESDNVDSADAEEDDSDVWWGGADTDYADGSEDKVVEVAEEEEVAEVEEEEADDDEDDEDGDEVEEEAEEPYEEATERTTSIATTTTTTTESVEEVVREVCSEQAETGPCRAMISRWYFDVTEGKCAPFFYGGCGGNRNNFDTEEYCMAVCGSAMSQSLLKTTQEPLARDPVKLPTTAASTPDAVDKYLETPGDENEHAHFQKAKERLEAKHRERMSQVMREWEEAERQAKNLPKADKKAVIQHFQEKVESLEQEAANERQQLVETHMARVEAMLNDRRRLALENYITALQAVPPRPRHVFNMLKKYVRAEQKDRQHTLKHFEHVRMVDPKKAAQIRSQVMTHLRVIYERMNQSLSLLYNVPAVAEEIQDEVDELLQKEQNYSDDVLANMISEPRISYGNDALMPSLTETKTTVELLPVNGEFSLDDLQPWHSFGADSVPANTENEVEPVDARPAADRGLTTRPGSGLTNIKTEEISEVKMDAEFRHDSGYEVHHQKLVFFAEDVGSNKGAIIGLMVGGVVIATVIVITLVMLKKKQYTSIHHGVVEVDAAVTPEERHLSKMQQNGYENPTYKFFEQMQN

SMILES: CCOC(=O)CN1C(=O)/C(=C/c2ccc3c(c2)Sc2ccccc2N3C)SC1=S
- Kd: 7.5 nM
